The values that follow come from patent US7964531B2, “3-phenoxy-4-pyridazinol derivatives and herbicidal composition containing the same” (Mitsui Chemicals Agro, Inc., priority 2001, dated 2011).

The structures appear in SMILES notation.

Type in all cases: in vivo
Series [1] relates to Cyperus serotinus. The series can be described thus: Test Example 1: herbicidal effects, paddy-field pot test. To be noted: wettable powder applied 3 days after transplanting, judged after 25 days. In outline: (§1)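 Scores are growth inhibition ratings from 0 (0–10%) to 5 (91–100%), judged 25 days after a water-diluted wettable powder was applied to flooded pots. Treatment followed transplanting of 2.2-leaf rice by 3 days; weeds were seeded at the soil surface or planted as germinated tubers.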

For series [2], the system named is annual broad-leaved weeds (Lindernia spp., Rotala indica). The series is described as above. To be noted: wettable powder applied 3 days after transplanting, judged after 25 days. In outline:
as §1

For series [3], the system named is Scirpus joncoides. The series is described as above. Conditions: wettable powder applied 3 days after transplanting, judged after 25 days. In short, it runs like this: as §1
Series [4] relates to barnyardgrass (Echinochloa oryzicola Vasing.). The description is as above. Conditions: wettable powder applied 3 days after transplanting, judged after 25 days. In short, it runs like this:
as §1

The test system of series [5] is barnyardgrass. Description: Test Example 2: herbicidal effects (soil treatment). To be noted: dosage 5 kg/a; soil treatment the day after seeding; judged after 21 days. The source says:
(§2) Judgment Standard • 0: Growth inhibition rate; 0 to 10% • 1: Growth inhibition rate; 11 to 30% • 2: Growth inhibition rate; 31 to 50% • 3: Growth inhibition rate; 51 to 70% • 4: Growth inhibition rate; 71 to 90% • 5: Growth inhibition rate; 91 to 100%.
(§3) Upland soil was filled in 150 cm^2 pot, and seeds of barnyardgrass and indian mustard (Brassica juncea (L.) Czern. et Coss) were sowed, and grown in a greenhouse. At the next day of seeding, a predetermined chemical dosage of the wettable powder prepared in accordance with Preparation example 1 was diluted in water and applied to soil surface. After 21 days from the treatment, herbicidal effects were judged in accordance with the judgment standard of Test example 1, and the results were shown in Table 3.

Series [6] relates to indian mustard (Brassica juncea (L.) Czern. et Coss). The series is described as above. To be noted: dosage 5 kg/a; soil treatment the day after seeding; judged after 21 days.
Excerpt: as §2, §3

The test system of series [7] is transplanted paddy-field rice. The series can be described thus: Test Example 1: crop injury against transplanted paddy-field rice. To be noted: wettable powder applied 3 days after transplanting, judged after 25 days. In short, it runs like this:
as §1

For series [8], the system named is barnyardgrass. The series can be described thus: Test Example 5: herbicidal effects, upland (soil treatment). To be noted: after 21 days. Here is the method:
(§4) Upland soil was filled in 150 cm^2 pot, and seeds of barnyardgrass, Cyperus esculentus L., velvetleaf, black nightshade, tall morningglory and corn were sowed, and grown in a greenhouse. At the next day of seeding, a predetermined chemical dosage of the wettable powder prepared in accordance with Preparation example 5 was diluted with water and applied to soil surface. After 21 days from the treatment, herbicidal effects and crop injury against corn were judged according to the following judgment standard, and the results were shown in Tables 6 to 8.
(§5) Judgment Standard • 0: Growth inhibition rate; 0 to 9% • 1: Growth inhibition rate; 10 to 19% • 2: Growth inhibition rate; 20 to 29% • 3: Growth inhibition rate; 30 to 39% • 4: Growth inhibition rate; 40 to 49% • 5: Growth inhibition rate; 50 to 59% • 6: Growth inhibition rate; 60 to 69% • 7: Growth inhibition rate; 70 to 79% • 8: Growth inhibition rate; 80 to 89% • 9: Growth inhibition rate; 90 to 98% • 10: Growth inhibition rate; 99 to 100%.

Series [9] deals with tall morningglory. The series is described as above. To be noted: after 21 days. Here is the method: as §4, §5
Series [10] concerns velvetleaf. Described as above. Conditions: after 21 days. Here is the method: as §4, §5
The test system of series [11] is black nightshade. The description is as above. Conditions: after 21 days. Here is the method: as §4, §5
In series [12] the test system is transplanted paddy-field rice. The series can be described thus: Test Example 4: crop injury against transplanted paddy-field rice. Conditions: no second compound, after 25 days. The protocol: (§6) Paddy filed soil was filled in 1/5000 are Wagner pot, seeds of barnyardgrass (Echinochloa oryzicola Vasing.), Scirpus joncoides and annual broad-leaved weeds (Lindernia spp. and Rotala indica) which are awaken from dormancy were mixed at the surface layer of 1 cm. Also, tubers of Cyperus serotinus, Sagittaria pygmaea and Eleocharis kuroguwai which are awaken from dormancy were planted, and further seedlings of paddy-field rice at 2.2-leaf stage were transplanted and they were grown under the flooded condition in a greenhouse. After 3 days from the transplanting, a predetermined chemical dosage of the wettable powder prepared in accordance with Preparation example 5 was diluted with water, and applied to the pot. After 25 days, herbicidal effects and crop injury against transplanted paddy-field rice were judged according to the following judgment standard, and the results were shown in Table 5. Incidentally, “-” in the table means a composition containing no effective ingredient.
(§7) Judgment Standard • 0: Growth-inhibition rate; 0 to 15% • 1: Growth inhibition rate; 16 to 35% • 2: Growth inhibition rate; 36 to 55% • 3: Growth inhibition rate; 56 to 75% • 4: Growth inhibition rate; […] • 5: Growth inhibition rate; 96 to 100%.

In series [13] the test system is Sagittaria pygmaea. Description: Test Example 4: herbicidal effects of mixed wettable powder, paddy-field pot test. To be noted: no second compound, after 25 days. The protocol: as §6, §7
The subject of series [14] is Cyperus serotinus. The description is as above. Conditions: no second compound, after 25 days. Here is the method:
as §6, §7

Series [15] deals with Eleocharis kuroguwai. The series is described as above. Conditions: no second compound, after 25 days. The protocol:
as §6, §7

Series [16] has as its system annual broad-leaved weeds (Lindernia spp. and Rotala indica). The description is as above. Conditions: no second compound, after 25 days. The protocol: as §6, §7
In series [17] the test system is Scirpus joncoides. Described as above. Conditions: no second compound, after 25 days. The protocol: as §6, §7
The subject of series [18] is barnyardgrass (Echinochloa oryzicola Vasing.). The series is described as above. To be noted: no second compound, after 25 days. The protocol:
as §6, §7

In the case of `Oc1cc(Cl)nnc1Oc1c(Br)ccc2ccoc12` [Example 309], the “Herbicidal effects Cyperus serotinus” value in series [1] (chemical dosage 10 g/a) and in series [1] (chemical dosage 20 g/a) was 5 (Growth inhibition rate; 91 to 100%) each time. Further, the “Herbicidal effects Broad leaf” value in series [2] (chemical dosage 10 g/a) and in [2] (chemical dosage 20 g/a) was 5 (Growth inhibition rate; 91 to 100%) in each case. Moreover, the “Herbicidal effects Scirpus joncoides” value in [3] (chemical dosage 10 g/a) and in series [3] (chemical dosage 20 g/a) was 5 (Growth inhibition rate; 91 to 100%) in each case. Moreover, the “Herbicidal effects Barnyard grass” value in series [4] (chemical dosage 10 g/a) is 4 (Growth inhibition rate; 71 to 90%); in series [4] (chemical dosage 20 g/a), 5 (Growth inhibition rate; 91 to 100%). Also, the “Herbicidal effects Barnyard-grass” value in series [5] was 5 (Growth inhibition rate; 91 to 100%). Also, in series [6], the “Herbicidal effects indian mustard” value was 5 (Growth inhibition rate; 91 to 100%). For the same compound, the “Crop injury against transplanted rice” value in [7] (chemical dosage 10 g/a) is reported as 2 (Growth inhibition rate; 31 to 50%); in series [7] (chemical dosage 20 g/a), 5 (Growth inhibition rate; 91 to 100%).

For `Cc1ccc2ccoc2c1Oc1nnc(Cl)cc1O` [Example 310], the “Herbicidal effects Cyperus serotinus” value in [1] (chemical dosage 10 g/a) and in series [1] (chemical dosage 20 g/a) was 5 (Growth inhibition rate; 91 to 100%) each time. The “Herbicidal effects Broad leaf” value in series [2] (chemical dosage 10 g/a) and in series [2] (chemical dosage 20 g/a) was 5 (Growth inhibition rate; 91 to 100%) throughout. The “Herbicidal effects Scirpus joncoides” value in series [3] (chemical dosage 10 g/a) and in [3] (chemical dosage 20 g/a) was 5 (Growth inhibition rate; 91 to 100%) each time. In addition, the figures for the “Herbicidal effects Barnyard grass” value in [4] (chemical dosage 10 g/a) and in series [4] (chemical dosage 20 g/a) were 4 (Growth inhibition rate; 71 to 90%) and 5 (Growth inhibition rate; 91 to 100%), respectively. Further, in [5], the “Herbicidal effects Barnyard-grass” value is 5 (Growth inhibition rate; 91 to 100%). Moreover, in series [6], the “Herbicidal effects indian mustard” value is on record as 5 (Growth inhibition rate; 91 to 100%). In addition, the “Crop injury against transplanted rice” value in series [7] (chemical dosage 10 g/a) and in series [7] (chemical dosage 20 g/a) was 0 (Growth inhibition rate; 0 to 10%) in each case.

For the compound `CS(=O)(=O)c1cc(C(F)(F)F)ccc1C(=O)c1cnoc1C1CC1` [Compound D, 5-cyclopropyl-1,2-oxazol-4-yl α,α,α-trifluoro-2-mesyl-p-tolyl ketone], the “Herbicidal effects Barnyard grass” value in [8] (D alone 6.3 g/ha) is given as 3 (Growth inhibition rate; 30 to 39%); in series [8] (D alone 12.5 g/ha), 10 (Growth inhibition rate; 99 to 100%); in [8] (D alone 25 g/ha), 10 (Growth inhibition rate; 99 to 100%). The results for the “Herbicidal effects Tall Morningglory” value in series [9] (D alone 6.3 g/ha), in series [9] (D alone 12.5 g/ha) and in series [9] (D alone 25 g/ha) were 2 (Growth inhibition rate; 20 to 29%), 0 (Growth inhibition rate; 0 to 9%) and 5 (Growth inhibition rate; 50 to 59%), respectively. In addition, the “Herbicidal effects Velvetleaf” value is 6 (Growth inhibition rate; 60 to 69%) in series [10] (D alone 6.3 g/ha), 7 (Growth inhibition rate; 70 to 79%) in [10] (D alone 12.5 g/ha) and 9 (Growth inhibition rate; 90 to 98%) in series [10] (D alone 25 g/ha). Moreover, the “Herbicidal effects Black Nightshade” value in series [11] (D alone 6.3 g/ha) is listed as 5 (Growth inhibition rate; 50 to 59%); in series [11] (D alone 12.5 g/ha), 9 (Growth inhibition rate; 90 to 98%); in series [11] (D alone 25 g/ha), 9 (Growth inhibition rate; 90 to 98%).

For the compound `Cc1cccc(I)c1Oc1nnc(Cl)cc1O` [Example 256], the “Herbicidal effects Cyperus serotinus” value in [1] (chemical dosage 10 g/a) and in [1] (chemical dosage 20 g/a) was 5 (Growth inhibition rate; 91 to 100%) in each case. Further, the “Herbicidal effects Broad leaf” value in series [2] (chemical dosage 10 g/a) and in [2] (chemical dosage 20 g/a) was 5 (Growth inhibition rate; 91 to 100%) each time. The “Herbicidal effects Scirpus joncoides” value in series [3] (chemical dosage 10 g/a) and in series [3] (chemical dosage 20 g/a) was 5 (Growth inhibition rate; 91 to 100%) each time. Also, the “Herbicidal effects Barnyard grass” value in series [4] (chemical dosage 10 g/a) was 3 (Growth inhibition rate; 51 to 70%); in [4] (chemical dosage 20 g/a), 4 (Growth inhibition rate; 71 to 90%). The “Herbicidal effects Barnyard-grass” value in series [5] is 3 (Growth inhibition rate; 51 to 70%). In addition, the “Herbicidal effects indian mustard” value in series [6] is on record as 5 (Growth inhibition rate; 91 to 100%). Besides, the “Crop injury against transplanted rice” value was 2 (Growth inhibition rate; 31 to 50%) in [7] (chemical dosage 10 g/a) and 3 (Growth inhibition rate; 51 to 70%) in series [7] (chemical dosage 20 g/a).

As to `Cc1cc(C)c(C2CC2)c(Oc2nnc(Cl)cc2O)c1` [Example 288], the “Crop injury against transplanted rice” value is given as 0 (Growth-inhibition rate; 0 to 15%) in [12] (derivative 5 g/a), 0 (Growth-inhibition rate; 0 to 15%) in series [12] (derivative 10 g/a), 0 (Growth inhibition rate; 0 to 10%) in series [7] (chemical dosage 10 g/a) and 0 (Growth inhibition rate; 0 to 10%) in series [7] (chemical dosage 20 g/a). Further, the “Herbicidal effects Cyperus serotinus” value was 5 (Growth inhibition rate; 91 to 100%) in series [1] (chemical dosage 10 g/a), 5 (Growth inhibition rate; 91 to 100%) in series [1] (chemical dosage 20 g/a), 4 (Growth inhibition rate; 7.6 to 95%) in series [14] (derivative 5 g/a) and 5 (Growth inhibition rate; 96 to 100%) in series [14] (derivative 10 g/a). The “Herbicidal effects Broad leaf” value in series [2] (chemical dosage 10 g/a) is on record as 5 (Growth inhibition rate; 91 to 100%); in series [2] (chemical dosage 20 g/a), 5 (Growth inhibition rate; 91 to 100%); in [16] (derivative 5 g/a), 5 (Growth inhibition rate; 96 to 100%); in [16] (derivative 10 g/a), 5 (Growth inhibition rate; 96 to 100%). The “Herbicidal effects Scirpus joncoides” value in series [3] (chemical dosage 10 g/a) is reported as 5 (Growth inhibition rate; 91 to 100%); in series [3] (chemical dosage 20 g/a) it was 5 (Growth inhibition rate; 91 to 100%); in series [17] (derivative 5 g/a), 5 (Growth inhibition rate; 96 to 100%); in [17] (derivative 10 g/a) it was 5 (Growth inhibition rate; 96 to 100%). Moreover, the “Herbicidal effects Barnyard grass” value in series [4] (chemical dosage 10 g/a) is 0 (Growth inhibition rate; 0 to 10%); in series [4] (chemical dosage 20 g/a), 1 (Growth inhibition rate; 11 to 30%); in series [18] (derivative 5 g/a) it was 0 (Growth-inhibition rate; 0 to 15%); in series [18] (derivative 10 g/a) it was 0 (Growth-inhibition rate; 0 to 15%). Also, the “Herbicidal effects Sagittaria pygmaea” value in series [13] (derivative 5 g/a) and in series [13] (derivative 10 g/a) was 5 (Growth inhibition rate; 96 to 100%) throughout. Further, the “Herbicidal effects Eleocharis kuroguwai” value was 2 (Growth inhibition rate; 36 to 55%) in [15] (derivative 5 g/a) and 3 (Growth inhibition rate; 56 to 75%) in series [15] (derivative 10 g/a).
